Here are results for nine compounds from US9212168B2 (priority 2011, dated 2015).

pEC50: −log10 of the molar value.

The subject of assay [1] is HCV genotype 3a NS5A chimeric replicon. Briefly: Replicon assay against NS5A sequence of genotype 3a, intergenotypic chimera. Type of assay: cell-based. As to conditions: Hepatitis C virus, read-out: Genotype 3a. The procedure:
(§1) Assay 4: Replicon Assays Against NS5A Sequences of Other Genotypes
(§2) Potencies of test compounds against NS5A sequences of other genotypes were determined by creating intergenotypic chimeras. The entire NS5A gene from genotypes 2a, 2b, 3a, 4a, 5a, and 6a, or the nucleotide sequence encoding amino acids 11-118 of NS5A, was subcloned into a genotype 1b replicon. For genotype 2a, intergenotypic chimeras with both the JFH and the J6 strain were created. […] Since the majority of genotype 2a sequences in public databases contain the L31M sequence variant, the use of the J6 genotype 2a sequence may better reflect the antiviral potency of NS5A inhibitors.
(§3) These chimeric replicon plasmids were then linearized and in vitro transcribed to RNA. The RNA was used to transiently or stably transfect Huh-LUNET cells by electroporation, and the potencies of test compounds against the chimeras were determined as previously described.
Background: Replicon systems follow genome replication, usually without infectious particles.

The next assay deals with HCV genotype 1a replicon. Briefly: HCV genotype 1a replicon assay (NS3 protease activity readout). As to conditions: Hepatitis C virus, read-out: Genotype 1a, HCV genotype 1a replicon. The assay is classed as cell-based, hepatitis C virus. An outline of the steps:
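Genotype 1a subgenomic replicon cells (APC89, Huh7.5) were treated with compound dose-responses in G418-free medium, 0.5% DMSO final, for 48 or 72 hours at 37° C. Lysate NS3/4a protease activity measured with 15 μM FRET substrate, 20 min at 37° C (ex 340/em 509 nm); EC50 by 4-parameter fit.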

Assay [2] relates to HCV genotype 1a Y93H resistant mutant replicon. Briefly: Replicon assay against resistant mutant 1a Y93H (transient transfection). The assay is classed as cell-based. As to conditions: Hepatitis C virus, read-out: Genotype 1a Y93H. The procedure: Assay 3: Replicon Assays Against Resistant Mutants […]
Potencies of test compounds against additional mutations of interest were determined using transient transfection assays. These mutants included genotype 1a Y93C, Y93H, M28T, Q30E, Q30K, L31M, and Y93N. The mutation was first introduced into the parental plasmid by site-directed mutagenesis. The replicon plasmid was then linearized and in vitro transcribed to RNA. The RNA was used to transiently transfect Huh-LUNET cells (obtained from ReBLikon GmbH, Schriesheim, Germany) by electroporation, and the potencies of test compounds against the mutants were determined as previously described.

The test system of assay [3] is HCV genotype 2a (J6 strain) NS5A chimeric replicon. Briefly: Replicon assay against NS5A sequence of genotype 2a (J6 strain), intergenotypic chimera. Type of assay: cell-based. As to conditions: Hepatitis C virus, read-out: Genotype 2a (J6). On the procedure:
as §1, §2, §3

The next assay has as its system HCV genotype 1b replicon. Briefly: HCV genotype 1b replicon assay (Renilla luciferase readout). Type of assay: cell-based, hepatitis C virus. As to conditions: Hepatitis C virus, read-out: Genotype 1b. An outline of the steps: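 Huh7-derived APC144 subgenomic replicon cells carrying Renilla luciferase–NS3-NS5B, seeded 10,000/well without G418, then treated with compound dose-responses for 48 h at 37 °C (0.5% DMSO final). Luciferase signal fitted by 4-parameter model to EC50, reported as pEC50.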

For `COC(=O)N[C@H](C(=O)N1C[C@@H](OC)C[C@H]1c1nc(-c2ccc(-c3cc(Cl)c(NC(=O)c4ccc(N5CCN(C(=O)C(C)(C)C)C[C@H]5C)nc4)cc3OC(F)(F)F)cc2)c[nH]1)C1CCOCC1` [Example 15], the pEC50 in assay [1] is 9.00 to 10.00; in the assay with HCV genotype 1a replicon it was over 10.00; in assay [2], 8.00 to 9.00; in assay [3], 9.00 to 10.00; with HCV genotype 1b replicon it was over 10.00.
With `COC(=O)N[C@H](C(=O)N1C[C@@H](C)C[C@H]1c1nc(-c2ccc(-c3ccc(C(=O)Nc4ccc(N5CCN(C(=O)[C@H]6CC6(C)C)C[C@H]5C)nc4)cc3OC(F)(F)F)cc2)c[nH]1)C(C)C` [Example 8, ((S)-1-{(2S,4S)-2-[4-(4′-{6-[(R)-4-((S)-2,2-Dimethyl-cyclopropanecarbonyl)-2-methyl-piperazin-1-yl]-pyridin-3-ylcarbamoyl}-2′-trifluoromethoxy-biphenyl-4-yl)-1H-imidazol-2-yl]-4-methyl-pyrrolidine-1-carbonyl}-2-methyl-propyl)-carbamic acid methyl ester], the pEC50 is 6.00 to 8.00 in assay [1]; over 10.00 in the assay on HCV genotype 1a replicon; 6.00 to 8.00 in assay [2]; 6.00 to 8.00 in assay [3]; over 10.00 in the assay on HCV genotype 1b replicon.
For the compound `COC(=O)N[C@H](C(=O)N1C[C@@H](OC)C[C@H]1c1nc(-c2ccc(-c3cc(Cl)c(NC(=O)c4ccc(N5CCN(C(=O)C(C)(C)C)C[C@H]5C)nc4)cc3OC(F)(F)F)cc2)c[nH]1)C(C)C` [Example 13], the pEC50 was 9.00 to 10.00 in assay [1]; over 10.00 in the assay with HCV genotype 1a replicon; 8.00 to 9.00 in assay [2]; 9.00 to 10.00 in assay [3]; over 10.00 in the assay on HCV genotype 1b replicon.
Consider `COC(=O)N[C@H](C(=O)N1C[C@@H](C)C[C@H]1c1nc(-c2ccc(-c3cc(Cl)c(NC(=O)c4ccc(N5CCN(C(=O)C(C)(C)C)C[C@H]5C)nc4)cc3OC(F)(F)F)cc2)c[nH]1)C(C)C` [Example 10, [(S)-1-((2S,4S)-2-{4-[5′-Chloro-4′-({6-[(R)-4-(2,2-dimethyl-propionyl)-2-methyl-piperazin-1-yl]-pyridine-3-carbonyl}-amino)-2′-trifluoromethoxy-biphenyl-4-yl]-1H-imidazol-2-yl}-4-methyl-pyrrolidine-1-carbonyl)-2-methyl-propyl]-carbamic acid methyl ester], for which the pEC50 in assay [1] is 8.00 to 9.00; in the assay with HCV genotype 1a replicon, over 10.00; in assay [2], 8.00 to 9.00; in assay [3] it was 8.00 to 9.00; in the assay on HCV genotype 1b replicon, over 10.00.
As for `COC(=O)N[C@H](C(=O)N1C[C@@H](C)C[C@H]1c1nc(-c2ccc(-c3ccc(C(=O)Nc4ccc(N5CCN(C(=O)C(C)(C)C)C[C@H]5C)nc4)cc3OC(F)(F)F)cc2)c(Cl)[nH]1)C(C)C` [Example 12, ((S)-1-{(2S,4S)-2-[5-Chloro-4-(4′-{6-[(R)-4-(2,2-dimethyl-propionyl)-2-methyl-piperazin-1-yl]-pyridin-3-ylcarbamoyl}-2′-trifluoromethoxy-biphenyl-4-yl)-1H-imidazol-2-yl]-4-methyl-pyrrolidine-1-carbonyl}-2-methyl-propyl)-carbamic acid methyl ester], the pEC50 in assay [1] was 8.00 to 9.00; in the assay on HCV genotype 1a replicon it was over 10.00; in assay [2], 8.00 to 9.00; in assay [3] it was 8.00 to 9.00; with HCV genotype 1b replicon, over 10.00.
Turning to `COC(=O)N[C@H](C(=O)N1C[C@@H](C(N)=O)C[C@H]1c1nc(-c2ccc(-c3cc(Cl)c(NC(=O)c4ccc(N5CCN(C(=O)C(C)(C)C)C[C@H]5C)nc4)cc3OC(F)(F)F)cc2)c[nH]1)C(C)C` [Example 18, [(S)-1-((2S,4S)-4-Carbamoyl-2-{4-[5′-chloro-4′-({6-[(R)-4-(2,2-dimethyl-propionyl)-2-methyl-piperazin-1-yl]-pyridine-3-carbonyl}-amino)-2′-trifluoromethoxy-biphenyl-4-yl]-1H-imidazol-2-yl}-pyrrolidine-1-carbonyl)-2-methyl-propyl]-carbamic acid methyl ester], the pEC50 in assay [1] was 8.00 to 9.00; with HCV genotype 1a replicon it was over 10.00; in assay [2], 8.00 to 9.00; in assay [3], 9.00 to 10.00; with HCV genotype 1b replicon it was over 10.00.
Regarding `CNC(=O)N1C[C@@H](C)N(c2ccc(C(=O)Nc3cc(OC(F)(F)F)c(-c4ccc(-c5c[nH]c([C@@H]6C[C@H](C)CN6C(=O)[C@@H](NC(=O)OC)C(C)C)n5)cc4)cc3Cl)cn2)C[C@@H]1C` [Example 1, ((S)-1-{(2S,4S)-2-[4-(5′-Chloro-4′-{[6-((2R,5S)-2,5-dimethyl-4-methylcarbamoyl-piperazin-1-yl)-pyridine-3-carbonyl]-amino}-2′-trifluoromethoxy-biphenyl-4-yl)-1H-imidazol-2-yl]-4-methyl-pyrrolidine-1-carbonyl}-2-methyl-propyl)-carbamic acid methyl ester], the pEC50 in assay [1] was 6.00 to 8.00; in the assay on HCV genotype 1a replicon, over 10.00; in assay [2], 6.00 to 8.00; in assay [3], 6.00 to 8.00; with HCV genotype 1b replicon, over 10.00.
On to `COC(=O)N[C@H](C(=O)N1C[C@@H](OC)C[C@H]1c1nc(-c2ccc(-c3cc(Cl)c(NC(=O)c4ccc(N5CCN(C(=O)C(C)(C)CO)C[C@H]5C)nc4)cc3OC(F)(F)F)cc2)c[nH]1)C1CCOCC1` [Example 16, [(S)-2-((2S,4S)-2-{4-[5′-Chloro-4′-({6-[(R)-4-(3-hydroxy-2,2-dimethyl-propionyl)-2-methyl-piperazin-1-yl]-pyridine-3-carbonyl}-amino)-2′-trifluoromethoxy-biphenyl-4-yl]-1H-imidazol-2-yl}-4-methoxy-pyrrolidin-1-yl)-2-oxo-1-(tetrahydro-pyran-4-yl)-ethyl]-carbamic acid methyl ester], for which the pEC50 in assay [1] is 8.00 to 9.00; in the assay on HCV genotype 1a replicon, over 10.00; in assay [2], 8.00 to 9.00; in assay [3], 8.00 to 9.00; in the assay with HCV genotype 1b replicon, over 10.00.
Turning to `COC(=O)N[C@H](C(=O)N1C[C@@H](C)C[C@H]1c1nc(-c2ccc(-c3cc(Cl)c(C(=O)Nc4ccc(N5CCN(C(=O)C(C)(C)C)C[C@H]5C)nc4)cc3OC(F)(F)F)cc2)c[nH]1)C1CCOCC1` [Example 19, Methyl ((S)-2-((2S,4S)-2-(4-(5′-chloro-4′-((6-((R)-2-methyl-4-pivaloylpiperazin-1-yl)pyridin-3-yl)carbamoyl)-2′-(trifluoromethoxy)-[1,1′-biphenyl]-4-yl)-1H-imidazol-2-yl)-4-methylpyrrolidin-1-yl)-2-oxo-1-(tetrahydro-2H-pyran-4-yl)ethyl)carbamate], the pEC50 in assay [1] is 8.00 to 9.00; in the assay on HCV genotype 1a replicon it was over 10.00; in assay [2], 6.00 to 8.00; in assay [3] it was 8.00 to 9.00; in the assay on HCV genotype 1b replicon it was over 10.00.
